Reference: paper PMC7377239, “Cardiovascular Effects of Polychlorinated Biphenyls and Their Major Metabolites” (Environmental Health Perspectives, 2020)
Where two headings read alike, the source gives them in different places.

Assays:
[1] = test system: iCell endothelial cells (human iPSC-derived ECs); assay: High-content imaging cytotoxicity in iCell endothelial cells, 24 h; assay type: cell-based; settings: Homo sapiens, Endothelial cell, iPSC-EC, 24 hr; for viability at 0.1 µM / activity at 0.1 µM: 0.10 µM; for minimal effective concentration: top concentration 100.00 µM
In short: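 Readouts were vehicle-normalised and fitted to a four-parameter logistic model. POD was set at one SD beyond 0.5% DMSO control means, and 100 µM was assigned when no response was seen. Cells were monolayers of iCell endothelial cells imaged after 24 h compound exposure using nuclear, mitochondrial and calcein dyes.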

HUVECs = assay: High-content imaging cytotoxicity in HUVECs, 24 h; assay type: cell-based, human; settings: Homo sapiens, HUVEC, 24 h, HUVECs; for viability at 0.01 µM / activity at 0.01 µM / viability at 0.1 µM / activity at 0.1 µM / viability at 1 µM / activity at 1 µM / viability at 10 µM / activity at 10 µM / viability at 100 µM / activity at 100 µM: 0.00 µM = 100.00; for viability at 0.1 µM / activity at 0.1 µM: 0.10 µM; for minimal effective concentration: top concentration 100.00 µM
In short: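 Confluent HUVEC monolayers, passages 1–5, received test chemicals for 24 h. Cytotoxicity was scored from triple-stain high-content images, with PODs defined by a one-SD deviation from 0.5% DMSO vehicle controls.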

[2] = 0.00 µM control = 100.00, read-out: endo.cyto.24hr
[3] = 0.00 µM control = 100.00, read-out: endo.mito.24hr
[4] = 0.00 µM control = 100.00, read-out: endo.mitoint.24hr
[5] = 0.00 µM control = 100.00, read-out: endo.nma.24hr
[6] = 0.00 µM control = 100.00, read-out: endo.tc.24hrs
[7] = 24 hr, read-out: huvec.cyto.24hr
[8] = 24 hr, read-out: huvec.mito.24hr
[9] = 24 hr, read-out: huvec.mitoint.24hr
[10] = 24 hr, read-out: huvec.nma.24hr
[11] = 24 hrs, read-out: huvec.tc.24hrs

With `Oc1ccc(-c2cccc(Cl)c2)cc1Cl` [4-OH PCB11] the viability at 0.01 µM [1, 2] was 99.5%, the activity at 0.01 µM [1, 3] was 99.5% and the activity at 0.01 µM [1, 4] was 103%. It also gave an activity at 0.01 µM [1, 5] of 103%, a viability at 0.01 µM [1, 6] of 99.5% and a viability at 0.1 µM [1, 2] of 102%. It also gave an activity at 0.1 µM [1, 3] of 102%, an activity at 0.1 µM [1, 4] of 94.9% and an activity at 0.1 µM [1, 5] of 99.2%. The viability at 0.1 µM [1, 6] was 102%, the viability at 1 µM [1, 2] was 97.1% and the activity at 1 µM [1, 3] was 96.8%. It also gave an activity at 1 µM [1, 4] of 97.1%, an activity at 1 µM [1, 5] of 102% and a viability at 1 µM [1, 6] of 97.1%. The viability at 10 µM [1, 2] was 106%, the activity at 10 µM [1, 3] was 106% and the activity at 10 µM [1, 4] was 92.4%. For the same compound, the activity at 10 µM [1, 5] was 97.2%, the viability at 10 µM [1, 6] was 106% and the viability at 100 µM [1, 2] was 57.3%. It also gave an activity at 100 µM [1, 3] of 52.7%, an activity at 100 µM [1, 4] of 68% and an activity at 100 µM [1, 5] of 88%. The viability at 100 µM [1, 6] was 78.1%, the minimal effective concentration ([1]; read-out: endo.cyto.24hr POD) was 43.6 µM and the minimal effective concentration ([1]; read-out: endo.mito.24hr POD) was 43.6 µM. The minimal effective concentration ([1]; read-out: endo.mitoint.24hr POD) was 13 µM, the minimal effective concentration ([1]; read-out: endo.nma.24hr POD) was 9.66 µM and the minimal effective concentration ([1]; read-out: endo.tc.24hrs POD) was 62.1 µM. The viability at 0.01 µM (HUVECs; [7]) was 113%, the activity at 0.01 µM (HUVECs; [8]) was 112% and the activity at 0.01 µM (HUVECs; [9]) was 86.8%. The activity at 0.01 µM (HUVECs; [10]) was 95.3%, the viability at 0.1 µM (HUVECs; [7]) was 87.7% and the activity at 0.1 µM (HUVECs; [8]) was 86.9%. The activity at 0.1 µM (HUVECs; [9]) was 109%, the activity at 0.1 µM (HUVECs; [10]) was 105% and the viability at 1 µM (HUVECs; [7]) was 97%. The activity at 1 µM (HUVECs; [8]) was 96.1%, the activity at 1 µM (HUVECs; [9]) was 101% and the activity at 1 µM (HUVECs; [10]) was 97.1%. For the same compound, the viability at 10 µM (HUVECs; [7]) was 43.8%, the activity at 10 µM (HUVECs; [8]) was 26.1% and the activity at 10 µM (HUVECs; [9]) was 10.9%. For the same compound, the activity at 10 µM (HUVECs; [10]) was 69.2%, the viability at 100 µM (HUVECs; [7]) was 34.6% and the activity at 100 µM (HUVECs; [8]) was 0.26%. It also gave an activity at 100 µM (HUVECs; [9]) of 2.7%, an activity at 100 µM (HUVECs; [10]) of 73.6% and a minimal effective concentration (HUVECs; 24 hr, read-out: huvec.cyto.24hr POD) of 1.37 µM. It also gave a minimal effective concentration (HUVECs; 24 hr, read-out: huvec.mito.24hr POD) of 1.2 µM, a minimal effective concentration (HUVECs; 24 hr, read-out: huvec.mitoint.24hr POD) of 5.43 µM and a minimal effective concentration (HUVECs; 24 hr, read-out: huvec.nma.24hr POD) of 0.99 µM. It also gave a viability at 0.01 µM (HUVECs; [11]) of 113%, a viability at 0.1 µM (HUVECs; [11]) of 87.7% and a viability at 1 µM (HUVECs; [11]) of 97%. For the same compound, the viability at 10 µM (HUVECs; [11]) was 44.1%, the viability at 100 µM (HUVECs; [11]) was 36.5% and the minimal effective concentration (HUVECs; 24 hrs, read-out: huvec.tc.24hrs POD) was 1.37 µM.
